Measurements reported in patent US20260226048A1, “MULTI-CYCLIC IRAK AND FLT3 INHIBITING COMPOUNDS AND USES THEREOF” (CHILDREN'S HOSPITAL MEDICAL CENTER, priority 2023, published 2026).
Residue numbers refer to the chain shown, from its start.

How the values were obtained:
FLT3 D835Y = molecular target: T1, FLT3 D835Y (Homo sapiens, UniProt P36888, D835Y); assay: DiscoverX KINOMEscan competition binding assay, FLT3 D835Y; conditions: 11-point 3-fold dilution
T1 construct: purchased DiscoverX (KINOMEscan); host or cells: E. coli BL21-derived host (T7 phage) or HEK-293
T1 sequence (P36888 27-993 D835Y): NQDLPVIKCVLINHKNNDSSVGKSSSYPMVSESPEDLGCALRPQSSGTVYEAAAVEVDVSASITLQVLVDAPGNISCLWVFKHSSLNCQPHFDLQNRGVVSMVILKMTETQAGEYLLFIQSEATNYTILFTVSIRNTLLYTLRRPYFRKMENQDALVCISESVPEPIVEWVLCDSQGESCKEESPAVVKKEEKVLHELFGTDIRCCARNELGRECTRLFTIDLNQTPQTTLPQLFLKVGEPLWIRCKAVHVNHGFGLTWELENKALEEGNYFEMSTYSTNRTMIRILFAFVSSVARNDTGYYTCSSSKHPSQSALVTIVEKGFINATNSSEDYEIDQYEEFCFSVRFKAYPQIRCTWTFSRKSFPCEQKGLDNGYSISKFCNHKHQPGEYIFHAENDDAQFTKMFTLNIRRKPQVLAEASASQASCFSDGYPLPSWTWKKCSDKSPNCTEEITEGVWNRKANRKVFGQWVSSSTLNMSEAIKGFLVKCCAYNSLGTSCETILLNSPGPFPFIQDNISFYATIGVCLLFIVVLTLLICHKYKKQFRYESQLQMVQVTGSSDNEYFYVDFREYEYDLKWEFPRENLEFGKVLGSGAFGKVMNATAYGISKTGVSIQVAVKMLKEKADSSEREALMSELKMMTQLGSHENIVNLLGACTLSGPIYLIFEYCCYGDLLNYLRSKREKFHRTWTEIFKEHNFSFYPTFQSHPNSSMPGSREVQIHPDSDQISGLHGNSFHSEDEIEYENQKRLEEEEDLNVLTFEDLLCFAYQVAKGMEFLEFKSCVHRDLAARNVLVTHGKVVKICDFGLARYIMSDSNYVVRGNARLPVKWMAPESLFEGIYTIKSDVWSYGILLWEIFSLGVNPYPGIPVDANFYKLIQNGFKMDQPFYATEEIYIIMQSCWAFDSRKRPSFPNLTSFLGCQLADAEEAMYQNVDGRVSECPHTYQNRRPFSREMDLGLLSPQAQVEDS
From the text: (§1) […]. […] As a result, the data report thermodynamic interaction affinities (Kd values), rather than IC50 values that are dependent on ATP concentrations. The assay uses a DNA-tagged version of the protein kinase, and an immobilized ligand bound to a solid support. Compounds that directly or indirectly prevent kinase binding to the immobilized ligand reduce the amount of kinase captured on the solid support, which is detected using an ultra-sensitive qPCR method. Affinity constants reported from the assay have been reported to be independent of the immobilized ligand used that is coupled to the solid support (See supplemental information in Fabian, M. A. et. al., (2005) Nat. Biotechnol. 23, 329-336; Wodicka, L. M. et. al., (2010) Chem. Biol. 17, 1241-1249.)
(§2) Kinase-tagged T7 phage strains were prepared in an E. coli host derived from the BL21 strain. E. coli were grown to log-phase and infected with T7 phage and incubated with shaking at 32° C. until lysis. The lysates were centrifuged and filtered to remove cell debris. The remaining kinases were produced in HEK-293 cells and subsequently tagged with DNA for qPCR detection. Streptavidin-coated magnetic beads were treated with biotinylated small molecule ligands for 30 minutes at room temperature to generate affinity resins for kinase assays. The liganded beads were blocked with excess biotin and washed with blocking buffer (SeaBlock (Pierce), 1% BSA, 0.05% Tween 20, 1 mM DTT) to remove unbound ligand and to reduce non-specific binding. […] Test compounds were prepared as 111× stocks in 100% DMSO. Kds were determined using an 11-point 3-fold compound dilution series with three DMSO control points. All compounds for Kd measurements are distributed by acoustic transfer (non-contact dispensing) in 100% DMSO. The compounds were then diluted directly into the assays such that the final concentration of DMSO was 0.9%. All reactions were performed in polypropylene 384-well plates. Each was a final volume of 0.02 mL. […] The kinase concentration in the eluates was measured by qPCR.
(§3) Binding constants (Kds) were calculated with a standard dose-response curve using the Hill equation. The Hill Slope was set to −1. Curves were fitted using a non-linear least square fit with the Levenberg-Marquardt algorithm.

FLT3 D835H = molecular target: T2, FLT3 D835H (Homo sapiens, UniProt P36888, D835H); assay: DiscoverX KINOMEscan competition binding assay, FLT3 D835H; conditions: 11-point 3-fold dilution
T2 construct: purchased DiscoverX (KINOMEscan); host or cells: E. coli BL21-derived host (T7 phage) or HEK-293
T2 sequence (P36888 27-993 D835H): T1 sequence (P36888 27-993 D835Y) with Y809H
From the text: as §1, §2, §3

Row | Compound | Kd (FLT3 D835Y) [nM] | Kd (FLT3 D835H) [nM]
1 | COc1cc2ncc(-c3nc(N[C@H]4CNCC[C@@H]4F)ncc3F)n2nc1C1CC1 [Compound 1a, 4-(6-cyclopropyl-7-methoxyimidazo[1,2-b]pyridazin-3-yl)-5-fluoro-N-((3S,4S)-4-fluoropiperidin-3-yl)pyrimidin-2-amine] | 0.23 | 0.22
2 | FC(F)COc1cc2ncc(-c3ccnc(N[C@H]4CNCC[C@@H]4F)n3)n2nc1C1CC1 [Compound 4a, 4-(6-cyclopropyl-7-(2,2-difluoroethoxy)imidazo[1,2-b]pyridazin-3-yl)-N-((3 S,4S)-4-fluoropiperidin-3-yl)pyrimidin-2-amine] | 0.42 | 0.7
3 | COc1cc2ncc(-c3nc(N[C@H]4CNCC[C@@H]4F)ncc3F)n2nc1C(C)(C)O [Compound 45a, 2-(3-(5-fluoro-2-(((3S,4S)-4-fluoropiperidin-3-yl)amino)pyrimidin-4-yl)-7-methoxyimidazo[1,2-b]pyridazin-6-yl)propan-2-ol] | 0.2 | 0.42
4 | CC(C)(O)c1ccc2ncc(-c3nc(N[C@H]4CNCC[C@@H]4F)ncc3F)n2c1 [Compound 46a, 2-(3-(5-fluoro-2-(((3S,4S)-4-fluoropiperidin-3-yl)amino)pyrimidin-4-yl)imidazo[1,2-a]pyridin-6-yl)propan-2-ol] | 0.26 | 0.67
5 | COc1cc2ncc(-c3nc(N[C@H]4CNCC[C@@H]4F)ncc3F)n2nc1C1COC1 [Compound 92a, 5-fluoro-N-((3S,4S)-4-fluoropiperidin-3-yl)-4-(7-methoxy-6-(oxetan-3-yl)imidazo[1,2-b]pyridazin-3-yl)pyrimidin-2-amine] | < 0.17 | < 0.17
6 | CC(C)(O)c1cn2c(-c3nc(N[C@H]4CNCC[C@@H]4F)ncc3F)cnc2cn1 [Compound 100a, 2-(3-(5-fluoro-2-(((3S,4S)-4-fluoropiperidin-3-yl)amino)pyrimidin-4-yl)imidazo[1,2-a]pyrazin-6-yl)propan-2-ol] | 2.4 | 6.3
7 | COc1cc2ncc(-c3nc(N[C@H]4CNCC[C@@H]4F)ncc3F)n2nc1N1CCCS1(=O)=O [Compound 112a, 2-(3-(5-fluoro-2-(((3S,4S)-4-fluoropiperidin-3-yl)amino)pyrimidin-4-yl)-7-methoxyimidazo[1,2-b]pyridazin-6-yl)isothiazolidine 1,1-dioxide] | < 0.17 | < 0.17
